Literature values, collected in PMC10593844, “Structure-function analyses reveal key molecular determinants of HIV-1 CRF01_AE resistance to the entry inhibitor temsavir” (Nature Communications, 2023).

Tests used:
[1] = test system: laboratory-adapted NL4-3 HIV-1 strain; design: method as in PMID 30604750; details: cited from earlier work
[2] = test system: CRF01_AE strains; design: method as in PMID 30604750; details: range over CRF01_AE strains; cited from earlier work

Row | Compound | fold greater inhibition than temsavir [1] | IC50 [2] [nM]
1 | COc1cnc(-c2csc(CN(C)CCCN(C)C)n2)c2[nH]cc(C(=O)C(=O)N3CCC(=C(C#N)c4ccccc4)CC3)c12 [BMS-814508] | 4 fold | 
2 | COc1cnc(-c2csc(C(=O)NCCO)n2)c2[nH]cc(C(=O)C(=O)N3CCC(=C(C#N)c4ccccc4)CC3)c12 [BMS-818251] | ~ 100 fold | 32 to 733
